According to article PMC12281424, “A Rac-specific competitive inhibitor of guanine nucleotide binding reduces metastasis in triple-negative breast cancer” (Cell Reports Medicine, 2025):
“Also recorded” adds a separate entry of the source.

Legend:
CLK2(h) = CLK2(h) (Homo sapiens, UniProt P49760); assay: Kinase Profiler; format: biochemical
Procedure: (§1) The kinase profiler was performed by the company Eurofins (Discovery, Panlab and Cerep).

CT26 cells = assay: Colorectal tumor model (hepatic metastasis); format: in vivo, mouse; conditions: 25 mg/kg/day i.p., 2 weeks after s.c. implantation
From the text: Figure 7 A41 decreases metastasis of colorectal cancer cells in vivo (A–C) Therapeutic effect of A41 on the pulmonary metastasis formation of colorectal circulating tumoral cells (CT26 cells). In control, A41-, and cisplatin-treated mice, metastasis surface (A), survival (B), and body weight (C) were quantified (N = 10 mice; ∗p < 0.05 vs. controls). (D) Therapeutic effect of A41 on colorectal tumor-dependent hepatic metastasis formation (N = 5–8 mice; ∗p < 0.05, ∗∗p < 0.01, and ∗∗∗p < 0.001 vs. controls).
8 weeks-old BALB/c female mice were obtained from the School of Veterinary Sciences at the National University of La Plata and treated in accordance with the Canadian Council on Animal Care and ARRIVE guidelines. 1x10^6 CT26 viable cells were resuspended in PBS (100 μL) and injected subcutaneously into the right flank of each animal. Mice were distributed and treated as follows: control, consist in a daily intraperitoneal (ip) administration of vehicle (5% DMSO, 45% PEG400); A41, ip administration of 25 mg/kg BW/day; 5-FU, ip administration 20 mg/kgBW/week in sterile water; A41+5-FU, ip administration of A41 and 5-FU treatments. Liver metastases were identified and quantified under a stereoscopic magnifying glass. These lesions were distinguished by their isolated circular shape, their marked whitish color contrasting with the reddish liver tissue, and their raised appearance.

Fms(Y969C)(h) = Fms(Y969C)(h) (Homo sapiens, UniProt P07333, Y969C); assay: Kinase Profiler; format: biochemical
Procedure: as §1

SIK(h) = SIK(h) (Homo sapiens, UniProt P57059); assay: Kinase Profiler; format: biochemical
SIK(h), sequence (P57059 whole entry): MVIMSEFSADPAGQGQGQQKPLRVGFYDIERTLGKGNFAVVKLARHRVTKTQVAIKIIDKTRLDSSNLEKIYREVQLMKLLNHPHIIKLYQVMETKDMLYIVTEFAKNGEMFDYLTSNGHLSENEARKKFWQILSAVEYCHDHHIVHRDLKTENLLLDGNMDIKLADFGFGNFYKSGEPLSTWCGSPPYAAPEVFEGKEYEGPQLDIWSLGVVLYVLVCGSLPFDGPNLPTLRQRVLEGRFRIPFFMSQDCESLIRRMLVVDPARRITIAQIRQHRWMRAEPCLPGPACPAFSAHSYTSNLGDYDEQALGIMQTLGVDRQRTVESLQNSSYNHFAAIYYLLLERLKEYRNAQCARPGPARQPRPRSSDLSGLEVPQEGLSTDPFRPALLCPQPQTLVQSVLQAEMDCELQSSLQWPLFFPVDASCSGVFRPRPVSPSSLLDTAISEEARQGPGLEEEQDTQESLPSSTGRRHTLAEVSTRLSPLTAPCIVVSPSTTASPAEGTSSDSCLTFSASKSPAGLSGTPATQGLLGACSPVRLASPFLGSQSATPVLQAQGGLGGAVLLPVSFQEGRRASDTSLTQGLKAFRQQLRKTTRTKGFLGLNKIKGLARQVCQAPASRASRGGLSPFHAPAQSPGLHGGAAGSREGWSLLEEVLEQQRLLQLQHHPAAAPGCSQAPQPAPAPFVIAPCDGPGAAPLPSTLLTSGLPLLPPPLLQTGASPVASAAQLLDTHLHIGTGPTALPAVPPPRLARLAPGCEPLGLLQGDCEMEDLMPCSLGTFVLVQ
Procedure: as §1

B-Raf(h) = B-Raf(h) (Homo sapiens, UniProt P15056); assay: Kinase Profiler; format: biochemical
B-Raf(h), sequence (P15056 whole entry): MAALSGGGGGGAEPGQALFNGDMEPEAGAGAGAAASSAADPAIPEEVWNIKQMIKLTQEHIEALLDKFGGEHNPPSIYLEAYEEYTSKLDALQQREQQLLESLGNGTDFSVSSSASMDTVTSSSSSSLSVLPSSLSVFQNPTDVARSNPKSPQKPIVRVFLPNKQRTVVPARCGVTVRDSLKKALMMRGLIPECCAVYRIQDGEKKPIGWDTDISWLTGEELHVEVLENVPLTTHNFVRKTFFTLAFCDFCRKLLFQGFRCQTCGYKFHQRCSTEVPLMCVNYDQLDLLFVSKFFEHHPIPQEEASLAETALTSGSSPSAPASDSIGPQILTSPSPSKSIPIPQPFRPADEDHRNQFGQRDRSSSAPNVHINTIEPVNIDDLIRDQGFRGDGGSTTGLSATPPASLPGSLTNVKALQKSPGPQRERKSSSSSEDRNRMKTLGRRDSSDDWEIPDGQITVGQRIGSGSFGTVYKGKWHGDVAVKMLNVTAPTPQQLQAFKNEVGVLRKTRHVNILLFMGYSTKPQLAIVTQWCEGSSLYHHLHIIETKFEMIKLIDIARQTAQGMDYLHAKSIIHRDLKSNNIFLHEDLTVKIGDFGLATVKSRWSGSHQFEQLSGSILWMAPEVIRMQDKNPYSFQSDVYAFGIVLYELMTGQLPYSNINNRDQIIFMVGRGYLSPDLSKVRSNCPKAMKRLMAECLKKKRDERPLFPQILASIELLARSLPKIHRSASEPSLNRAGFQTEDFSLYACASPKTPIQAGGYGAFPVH
Procedure: (§2) Blood cell counts, kinase profiler, safety screen, bacterial cytotoxicity, Ames, micronucleus assays were performed by the company Eurofins (France). The kinase profiler was performed by the company Eurofins (Discovery, Panlab and Cerep).

PI3K (p110a/p85a)(m) = PI3K (p110a/p85a)(m) (Mus musculus, UniProt P42337); assay: Kinase Profiler; format: biochemical
PI3K (p110a/p85a)(m), sequence (P42337 whole entry): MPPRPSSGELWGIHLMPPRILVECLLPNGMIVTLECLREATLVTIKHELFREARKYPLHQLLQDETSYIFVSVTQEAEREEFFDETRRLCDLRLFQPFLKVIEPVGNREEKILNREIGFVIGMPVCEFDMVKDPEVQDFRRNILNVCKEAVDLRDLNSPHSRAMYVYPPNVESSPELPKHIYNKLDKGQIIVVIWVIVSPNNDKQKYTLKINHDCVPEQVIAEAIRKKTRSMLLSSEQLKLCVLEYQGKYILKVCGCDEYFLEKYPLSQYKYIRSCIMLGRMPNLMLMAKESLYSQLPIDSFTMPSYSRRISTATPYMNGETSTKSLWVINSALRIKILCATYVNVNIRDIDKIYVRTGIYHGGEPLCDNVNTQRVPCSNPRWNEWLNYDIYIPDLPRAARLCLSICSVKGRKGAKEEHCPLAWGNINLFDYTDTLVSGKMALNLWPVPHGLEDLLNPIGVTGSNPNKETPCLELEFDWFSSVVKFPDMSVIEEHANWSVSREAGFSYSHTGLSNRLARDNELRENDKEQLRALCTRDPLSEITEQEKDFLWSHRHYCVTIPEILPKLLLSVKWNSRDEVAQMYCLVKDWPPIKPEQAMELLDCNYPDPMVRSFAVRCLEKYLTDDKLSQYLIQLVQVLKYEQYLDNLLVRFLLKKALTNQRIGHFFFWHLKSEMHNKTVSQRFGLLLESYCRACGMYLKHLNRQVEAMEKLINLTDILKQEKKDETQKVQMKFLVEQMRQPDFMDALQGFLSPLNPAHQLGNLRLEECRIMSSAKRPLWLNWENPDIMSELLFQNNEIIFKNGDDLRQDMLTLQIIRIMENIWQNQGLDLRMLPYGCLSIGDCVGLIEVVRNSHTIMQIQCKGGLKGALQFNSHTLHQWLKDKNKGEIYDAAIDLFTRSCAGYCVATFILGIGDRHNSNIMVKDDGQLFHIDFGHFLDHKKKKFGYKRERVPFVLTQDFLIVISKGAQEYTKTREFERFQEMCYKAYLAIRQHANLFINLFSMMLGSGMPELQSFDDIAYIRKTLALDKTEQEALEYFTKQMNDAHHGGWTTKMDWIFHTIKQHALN
PI3K (p110a/p85a)(m), sequence (P26450 2-724 partner): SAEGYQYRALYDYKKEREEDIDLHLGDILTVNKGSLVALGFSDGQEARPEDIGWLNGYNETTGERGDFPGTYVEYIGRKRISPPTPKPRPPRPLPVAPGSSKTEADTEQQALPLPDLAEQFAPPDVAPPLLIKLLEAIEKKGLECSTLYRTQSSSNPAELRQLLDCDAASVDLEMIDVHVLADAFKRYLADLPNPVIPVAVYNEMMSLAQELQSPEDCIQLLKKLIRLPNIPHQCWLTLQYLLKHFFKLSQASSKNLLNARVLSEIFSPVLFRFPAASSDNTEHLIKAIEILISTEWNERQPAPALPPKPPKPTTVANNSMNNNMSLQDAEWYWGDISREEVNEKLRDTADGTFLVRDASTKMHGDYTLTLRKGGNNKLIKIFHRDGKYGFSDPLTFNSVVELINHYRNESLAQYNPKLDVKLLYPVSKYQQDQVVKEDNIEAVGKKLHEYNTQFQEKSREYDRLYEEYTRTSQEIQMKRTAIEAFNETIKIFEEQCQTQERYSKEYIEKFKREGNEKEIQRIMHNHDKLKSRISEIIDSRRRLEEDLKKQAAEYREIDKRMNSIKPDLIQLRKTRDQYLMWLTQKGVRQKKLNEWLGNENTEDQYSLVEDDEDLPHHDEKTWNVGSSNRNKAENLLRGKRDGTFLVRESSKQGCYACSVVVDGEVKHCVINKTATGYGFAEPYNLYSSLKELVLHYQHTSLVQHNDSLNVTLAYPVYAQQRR
Procedure: as §2

PRK2(h) = PRK2(h) (Homo sapiens, UniProt Q16513); assay: Kinase Profiler; format: biochemical
Procedure: as §1

CaMKIIδ(h) = CaMKIIδ(h) (Homo sapiens, UniProt Q13557); assay: Kinase Profiler; format: biochemical
CaMKIIδ(h), sequence (Q13557 whole entry): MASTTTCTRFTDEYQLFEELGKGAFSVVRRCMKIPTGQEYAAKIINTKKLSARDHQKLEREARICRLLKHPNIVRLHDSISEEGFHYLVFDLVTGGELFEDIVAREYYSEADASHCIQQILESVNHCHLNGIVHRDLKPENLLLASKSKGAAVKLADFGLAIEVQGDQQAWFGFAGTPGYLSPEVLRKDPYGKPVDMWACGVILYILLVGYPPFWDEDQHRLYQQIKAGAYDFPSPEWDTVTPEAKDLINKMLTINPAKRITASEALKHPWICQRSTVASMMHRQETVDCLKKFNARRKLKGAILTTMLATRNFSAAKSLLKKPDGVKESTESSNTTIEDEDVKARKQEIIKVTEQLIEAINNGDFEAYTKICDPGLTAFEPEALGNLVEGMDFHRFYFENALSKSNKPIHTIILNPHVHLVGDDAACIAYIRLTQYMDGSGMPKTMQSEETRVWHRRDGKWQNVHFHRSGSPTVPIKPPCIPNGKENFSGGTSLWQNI
Procedure: as §1

[1] = In vivo pharmacokinetics and tissue distribution; parameters: species or system mouse; conditions: 25 mg/kg i.p.
Procedure: A41 was administrated intraperitoneally (25 mg/kg, aqueous solution of A41 in 5% DMSO, 50% PEG) in 2 months old C57Bl/6 after 4 h of fasting. After 5, 30, 60, 120 and 360 minutes following injection, mice (n = 3 per kinetic time) were sacrificed and tissues (blood, heart, lung, liver, kidney and brain) were collected. Control mice (n = 5) were used to get blank tissues for mass spectrometry analyses. Blood was collected by cardiac puncture into tubes containing 10% EDTA. Immediately after blood collection, plasma was separated by centrifugation for 5 min at 4 °C (2,000 × g). Solid tissues were rapidly excised and snap frozen in liquid nitrogen before to be disrupted and homogenized in PBS (1/10; wt/vol) using TissueLyser II (Quiagen). A41 concentrations were determined in mouse plasma and tissues by liquid chromatography-tandem mass spectrometry (LC-MS/MS). All solvents were LC-MS grade and purchased from Biosolve (Valkenswaard, Netherlands). A41 10× standard solutions were prepared and serially diluted in acetonitrile to obtain 8 standard solutions ranging 10-20,000 nmol/L. A41 10X standard solutions (5 μL or 20 μL) were added to blank plasma (45 μL) or blank tissue homogenates (180 μL), respectively, to get final concentrations ranging 1-2,000 nmol/L. Acetonitrile (5 μL or 20 μL) was added to plasma (45 μL) or tissue samples (180 μL). Tissue homogenates (standards and samples) were then centrifugated for 5 min at 5,000 × g for 5 min at 10 °C and supernatants (100 μL) were collected. Proteins were precipitated by the addition of 150 μL or 300 μL of acetonitrile containing labeled D3-A41 as internal standard (200 nmol/L) in all plasma (50 μL) and tissue supernatants (100 μL), respectively. After centrifugation (17,000 × g, 10 min, 10 °C), supernatants were collected and dried under a gentle stream of nitrogen. Dried samples were finally reconstituted with 25% acetonitrile containing 0.1% formic acid (100 μL), and injected into the LC-MS/MS system. Analyses were performed on a Xevo® TQD mass spectrometer with an electrospray (ESI) interface and an Acquity H-Class® UPLC™ device (Waters Corporation, Milford, MA, USA). Samples (10 μL) were injected onto a BEH C18 column (1.7 μm; 2.1 × 50 mm, Waters Corporation) held at 60 °C, and compounds were separated with a linear gradient of mobile phase B (acetonitrile, 0.1% formic acid) in mobile phase A (water, 0.1% formic acid) at a flow rate of 500 μL/min. […] A41 and its internal standard d3-A41 were then detected by the mass spectrometer with the ESI interface operating in the positive ion mode (capillary voltage, 3 kV; desolvatation gas (N2) flow and temperature, 900 L/h and 450 °C; source temperature, 120 °C). The multiple reaction monitoring mode was applied for MS/MS detection at the following mass-to-charge (m/z) ratio transitions: 487.1 → 153.0 and 490.2 → 156.0 for A41 and d3-A41, respectively. Cone voltage and collision energy were set at 35 V and 20 eV, respectively. Data acquisition and processing were achieved using MassLynx® and TargetLynx® softwares (version 4.1, Waters Corporation). Chromatographic peak area ratios between A41 and its internal standard constituted the detector responses. Standard solutions were used to plot calibration curves for quantification and dilution factors related to biological matrix preparations were included in calculation. The linearity was expressed by the mean r^2 which was greater than 0.995 for all matrices (linear regression, 1/x weighting, origin excluded). AUC0-6h was calculated as follow: AUC0−6h=∫06hC0e^−Ktdt=C0/K Where K = constant of elimination, and […].
Supplementary Fig. 7: A41 pharmacokinetics. (a) Molecule distribution in plasma and indicatedorgans afterintraperitonealinjectionof A41 (25 mg/kg) in mice(N=3 mice/kinetictimepoint). (b) Pharmacokinetic parametersof A41 calculated in mice after a singleintraperitonealinjection(25mg/kg). AUC = Area Under the Concentration-time curve.

NEK7(h) = NEK7(h) (Homo sapiens, UniProt Q8TDX7); assay: Kinase Profiler; format: biochemical
NEK7(h), sequence (Q8TDX7 whole entry): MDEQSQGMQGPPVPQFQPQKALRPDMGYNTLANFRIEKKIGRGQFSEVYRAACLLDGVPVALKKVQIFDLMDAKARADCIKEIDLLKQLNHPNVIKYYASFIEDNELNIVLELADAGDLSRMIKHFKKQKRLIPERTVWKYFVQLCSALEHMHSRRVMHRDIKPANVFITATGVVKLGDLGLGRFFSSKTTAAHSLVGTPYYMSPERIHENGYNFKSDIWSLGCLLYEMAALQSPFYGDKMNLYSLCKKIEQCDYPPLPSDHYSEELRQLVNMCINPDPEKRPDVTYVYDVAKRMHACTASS
Procedure: as §1

CLK2(h), sequence (P49760 whole entry): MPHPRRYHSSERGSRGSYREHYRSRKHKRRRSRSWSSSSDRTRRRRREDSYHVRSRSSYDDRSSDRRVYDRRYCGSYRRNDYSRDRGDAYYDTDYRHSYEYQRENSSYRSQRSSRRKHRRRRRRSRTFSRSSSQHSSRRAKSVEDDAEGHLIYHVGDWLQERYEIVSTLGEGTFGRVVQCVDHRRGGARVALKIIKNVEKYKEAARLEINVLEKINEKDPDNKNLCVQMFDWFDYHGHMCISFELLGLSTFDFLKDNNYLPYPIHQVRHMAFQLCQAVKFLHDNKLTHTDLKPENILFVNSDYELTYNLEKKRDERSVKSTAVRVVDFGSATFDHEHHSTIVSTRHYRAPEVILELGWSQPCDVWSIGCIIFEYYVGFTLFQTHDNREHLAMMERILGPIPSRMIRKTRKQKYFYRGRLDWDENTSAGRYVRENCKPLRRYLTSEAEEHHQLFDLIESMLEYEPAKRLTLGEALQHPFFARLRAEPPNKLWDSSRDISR

SMILES: COc1ccc(OC)c(NS(=O)(=O)c2ccc(NC(=O)CCSc3ccc(C)cc3)cc2)c1 [Compound A41]
- Activity(%) (CLK2(h)): 97%
- number of liver metastases (CT26 cells): significantly reduced the number of metastases; also recorded: more effective than 5-fluorouracil (5FU)
- Activity(%) (Fms(Y969C)(h)): 107%
- Activity(%) (SIK(h)): 144%
- Activity(%) (B-Raf(h)): 90%
- Activity(%) (PI3K (p110a/p85a)(m)): 102%
- Activity(%) (PRK2(h)): 110%
- Activity(%) (CaMKIIδ(h)): 92%
- C0 [1]: 4335 ng/mL
- blood-brain barrier crossing [1]: could not cross the blood-brain barrier
- t ½ [1]: 1.6294 h
- time over which plasma concentration declined [1]: 2 to 3 h
- tissue concentration, brain [1]: extremely low concentration
- tissue concentration, kidney [1]: highest concentration
- tissue distribution, liver, heart, and lungs [1]: detected
- AUC0-6h ([1]; parameter list): 14.3 µg·h/mL
- AUC0-6h ([1]; plasma): 14.3 (µg/ mL)xh
- Cmax (peak plasma concentration) ([1]; plasma): 15056 ± 500 ng/mL
- Activity(%) (NEK7(h)): 97%
